In brackets after ≈: the same amount, converted by molar mass. Activity calls are given as the source filed them. No cut-off for these calls is given here.
Assays:
[1] = Apparent intrinsic clearance in human hepatocytes; format: ADME, cell-based, Hepatocyte; settings: read-out: CLH(app)
[2] = Apparent intrinsic clearance in human liver microsomes; format: ADME; settings: read-out: CLH(app)
MDR1 (human) [3] = test: Efflux ratio of permeability in MDCK cells expressing human MDR1; format: ADME, cell-based, Canis lupus familiaris; settings: dog
Gamma-secretase [4] = test: Modulation of gamma-secretase (unknown origin) expressed in CHO cells overexpressing human wild type APP assessed as reduction of amyloid beta 42 level after 24 hrs by ELISA; format: cell-based
[5] = Apparent intrinsic clearance in rat liver microsomes; format: ADME; settings: read-out: CLH(app)
[6] = Volume of distribution at steady state in rat at 1 mg/kg, iv; format: ADME, organism-based; parameters: dose 1 mg/kg, route intravenous; settings: in vivo, read-out: Vdss
Cytochrome P450 2D6 = Cytochrome P450 2D6 (Homo sapiens, UniProt P10635); test: Inhibition of CYP2D6 (unknown origin); format: ADME
Sequence of Cytochrome P450 2D6 (P10635 whole entry): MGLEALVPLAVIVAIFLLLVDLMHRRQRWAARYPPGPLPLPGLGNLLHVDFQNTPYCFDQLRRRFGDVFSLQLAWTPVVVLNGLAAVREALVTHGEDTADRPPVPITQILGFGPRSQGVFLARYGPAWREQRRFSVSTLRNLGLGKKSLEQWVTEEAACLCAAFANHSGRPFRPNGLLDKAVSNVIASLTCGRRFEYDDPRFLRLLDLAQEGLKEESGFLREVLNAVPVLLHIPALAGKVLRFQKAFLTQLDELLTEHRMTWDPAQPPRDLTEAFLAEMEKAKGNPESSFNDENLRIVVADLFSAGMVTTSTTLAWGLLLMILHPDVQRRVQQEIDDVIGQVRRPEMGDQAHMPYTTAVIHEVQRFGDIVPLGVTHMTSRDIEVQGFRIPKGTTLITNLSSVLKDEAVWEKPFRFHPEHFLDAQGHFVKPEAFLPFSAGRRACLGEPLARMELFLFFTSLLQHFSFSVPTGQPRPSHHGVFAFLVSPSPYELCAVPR

Cytochrome P450 1A2 = target: T1, Cytochrome P450 1A2 (Homo sapiens, UniProt P05177); test: Inhibition of CYP1A2 (unknown origin); format: ADME
T1 sequence (P05177 whole entry): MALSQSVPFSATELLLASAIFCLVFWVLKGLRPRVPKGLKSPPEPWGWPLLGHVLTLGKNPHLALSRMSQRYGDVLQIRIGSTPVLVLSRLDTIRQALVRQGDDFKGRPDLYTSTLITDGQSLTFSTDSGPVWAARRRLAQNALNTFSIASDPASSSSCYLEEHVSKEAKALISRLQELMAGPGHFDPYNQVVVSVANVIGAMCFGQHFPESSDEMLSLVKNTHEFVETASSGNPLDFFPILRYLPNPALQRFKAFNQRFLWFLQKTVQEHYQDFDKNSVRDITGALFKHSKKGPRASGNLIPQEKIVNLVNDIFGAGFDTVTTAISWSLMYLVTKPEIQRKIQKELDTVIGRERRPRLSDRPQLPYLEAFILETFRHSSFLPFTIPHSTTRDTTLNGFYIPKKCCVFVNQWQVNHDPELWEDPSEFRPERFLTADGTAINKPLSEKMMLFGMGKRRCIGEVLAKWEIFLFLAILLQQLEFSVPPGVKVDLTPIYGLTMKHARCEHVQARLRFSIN

MDR1 (human) [7] = test: Permeability from apical to basolateral side in MDCK cells expressing human MDR; format: ADME, cell-based, Canis lupus familiaris; settings: dog, read-out: permeability
Cytochrome P450 2C19 = Cytochrome P450 2C19 (Homo sapiens, UniProt P33261); test: Inhibition of CYP2C19 (unknown origin); format: ADME
Sequence of Cytochrome P450 2C19 (P33261 whole entry): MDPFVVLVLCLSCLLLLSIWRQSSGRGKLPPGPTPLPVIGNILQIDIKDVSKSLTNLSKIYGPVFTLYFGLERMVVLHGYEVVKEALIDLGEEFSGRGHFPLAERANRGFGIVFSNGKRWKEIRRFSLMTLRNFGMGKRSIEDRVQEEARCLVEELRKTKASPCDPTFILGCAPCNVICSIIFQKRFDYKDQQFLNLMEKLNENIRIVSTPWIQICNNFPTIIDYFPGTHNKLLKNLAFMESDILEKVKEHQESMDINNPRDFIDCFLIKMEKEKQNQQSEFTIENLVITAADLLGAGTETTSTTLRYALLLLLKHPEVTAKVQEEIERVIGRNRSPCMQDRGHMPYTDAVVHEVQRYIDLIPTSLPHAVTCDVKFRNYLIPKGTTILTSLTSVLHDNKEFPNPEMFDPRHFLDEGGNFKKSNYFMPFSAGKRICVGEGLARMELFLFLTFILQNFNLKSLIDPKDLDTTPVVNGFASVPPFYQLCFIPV

[8] = Ratio of drug uptake in brain to plasma in rat at 5 mg/kg, po after 1 hr; format: ADME, organism-based; parameters: dose 5 mg/kg, route oral; settings: read-out: BPR
Gamma-secretase [9] = test: Modulation of gamma secretase in HEK293 NdeltaE cells assessed as inhibition of notch signalling; format: cell-based, Homo sapiens
[10] = Fraction unbound in rat plasma; format: ADME, cell-free
Cytochrome P450 2C8 = target: T2, Cytochrome P450 2C8 (Homo sapiens, UniProt P10632); test: Inhibition of CYP2C8 (unknown origin); format: ADME
T2 sequence (P10632 whole entry): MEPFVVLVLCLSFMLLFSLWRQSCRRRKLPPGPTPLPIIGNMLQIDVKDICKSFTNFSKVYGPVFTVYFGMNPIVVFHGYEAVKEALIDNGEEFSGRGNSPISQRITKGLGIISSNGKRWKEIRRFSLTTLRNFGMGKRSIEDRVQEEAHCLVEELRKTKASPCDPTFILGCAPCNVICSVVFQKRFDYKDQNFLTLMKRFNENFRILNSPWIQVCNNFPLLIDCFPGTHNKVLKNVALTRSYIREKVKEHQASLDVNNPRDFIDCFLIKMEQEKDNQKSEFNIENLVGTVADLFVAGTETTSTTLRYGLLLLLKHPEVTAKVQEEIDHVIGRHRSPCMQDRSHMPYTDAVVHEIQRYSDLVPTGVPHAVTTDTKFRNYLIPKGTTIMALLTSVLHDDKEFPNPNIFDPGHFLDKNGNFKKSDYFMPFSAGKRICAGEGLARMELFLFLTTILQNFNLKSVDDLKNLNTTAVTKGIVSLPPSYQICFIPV

[11] = Lipophilicity, log D of the compound by shake flask method; format: physicochemical; settings: octanol/water
[12] = Bioavailability in rat at 1 mg/kg, iv and 5 mg/kg, po; format: ADME, organism-based; settings: in vivo
Cytochrome P450 3A4 = Cytochrome P450 3A4 (Homo sapiens, UniProt P08684); test: Inhibition of CYP3A4 (unknown origin); format: ADME
Sequence of Cytochrome P450 3A4 (P08684 whole entry): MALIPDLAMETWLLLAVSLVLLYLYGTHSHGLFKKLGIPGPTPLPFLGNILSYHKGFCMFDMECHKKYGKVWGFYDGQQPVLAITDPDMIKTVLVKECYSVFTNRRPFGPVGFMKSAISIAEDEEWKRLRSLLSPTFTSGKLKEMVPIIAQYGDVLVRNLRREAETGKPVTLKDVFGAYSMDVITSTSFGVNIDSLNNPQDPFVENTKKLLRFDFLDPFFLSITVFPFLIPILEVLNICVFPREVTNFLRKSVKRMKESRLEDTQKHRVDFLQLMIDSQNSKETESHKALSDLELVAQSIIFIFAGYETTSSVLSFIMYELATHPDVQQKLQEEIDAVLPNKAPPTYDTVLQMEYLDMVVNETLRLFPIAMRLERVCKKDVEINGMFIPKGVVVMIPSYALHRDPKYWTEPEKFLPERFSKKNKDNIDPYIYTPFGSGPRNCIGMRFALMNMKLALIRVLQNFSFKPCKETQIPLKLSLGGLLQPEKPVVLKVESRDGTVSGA

[13] = Plasma concentration in rat at 5 mg/kg, po after 1 hr; format: ADME, organism-based; parameters: dose 5 mg/kg, route oral
[14] = Passive apparent permeability from apical to basolateral side in RRCK cells; format: ADME, cell-based, Canis lupus familiaris, MDCKII-LE; settings: dog, MDCK
[15] = Drug uptake in rat brain at 5 mg/kg, po after 1 hr; format: ADME, organism-based; parameters: dose 5 mg/kg, route oral; settings: read-out: Drug uptake
[16] = Clearance in rat at 1 mg/kg, iv; format: ADME, organism-based; parameters: dose 1 mg/kg, route intravenous; settings: in vivo
[17] = Fraction unbound in rat brain; format: ADME, tissue-based
[18] = Half life in rat at 1 mg/kg, iv; format: ADME, organism-based; parameters: dose 1 mg/kg, route intravenous; settings: in vivo
[19] = Aqueous kinetic solubility of the compound at pH 6.5; format: physicochemical; settings: read-out: Kinetic_solubility
Cytochrome P450 2C9 = Cytochrome P450 2C9 (Homo sapiens, UniProt P11712); test: Inhibition of CYP2C9 (unknown origin); format: ADME
Sequence of Cytochrome P450 2C9 (P11712 whole entry): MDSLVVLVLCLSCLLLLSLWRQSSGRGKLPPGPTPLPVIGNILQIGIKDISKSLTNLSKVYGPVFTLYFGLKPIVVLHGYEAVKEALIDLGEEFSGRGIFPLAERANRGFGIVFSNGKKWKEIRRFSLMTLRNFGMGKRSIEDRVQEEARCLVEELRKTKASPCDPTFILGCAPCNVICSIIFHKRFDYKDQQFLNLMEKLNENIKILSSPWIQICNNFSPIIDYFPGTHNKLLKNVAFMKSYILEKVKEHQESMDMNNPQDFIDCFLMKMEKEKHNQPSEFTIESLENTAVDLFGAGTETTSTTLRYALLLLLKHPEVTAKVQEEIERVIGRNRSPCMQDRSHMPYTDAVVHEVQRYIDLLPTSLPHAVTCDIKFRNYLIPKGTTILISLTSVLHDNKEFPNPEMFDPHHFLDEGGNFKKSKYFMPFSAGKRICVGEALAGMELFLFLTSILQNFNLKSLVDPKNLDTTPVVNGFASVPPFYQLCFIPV

[20] = Ratio of unbound drug level in brain to plasma in rat; format: ADME
Gamma-secretase [21] = test: Inhibition of gamma-secretase in human HeLa cells assessed as reduction of amyloid beta 42 level preincubated for 30 mins measured after 1.5 hrs by Western blotting analysis; format: cell-based
[22] = target: T3, Gamma-secretase (Homo sapiens) (UniProt Q96BI3+Q9NZ42+Q8WW43+P49768+Q92542+P49810); test: Binding affinity to gamma-secretase in human HeLa cells assessed as labeling of PS1-NTF at 5 uM by Western blot analysis; format: cell-based
[23] = target: T3, Gamma-secretase (Homo sapiens); test: Binding affinity to gamma-secretase in human HeLa cells assessed as labeling of PS1-NTF at 5 uM by Western blot analysis in presence of (S)-1-(1-(4-fluorophenyl)ethyl)-3-(3-methoxy-4-(4-methyl-1H-imidazol-1-yl)benzylidene)piperidin-2-one; format: cell-based
[24] = target: T3, Gamma-secretase (Homo sapiens); test: Binding affinity to gamma-secretase in human HeLa cells assessed as labeling of PS1-NTF at 5 uM by Western blot analysis in presence of GSI-L458; format: cell-based
[25] = target: T3, Gamma-secretase (Homo sapiens); test: Binding affinity to gamma-secretase in human HeLa cells assessed as labeling of PS1-NTF at 5 uM by Western blot analysis in presence of 2-[2-(7-Fluoronaphthalen-1-yloxy)ethyl]-7-(4-methyl-1H-imidazol-1-yl)-3,4-dihydro-1H-pyrido[1,2-a]pyrazine-1,6(2H)-dione; format: cell-based

Cc1cn(-c2ccc3n(c2=O)CCN(CC2(c4ccc(Cl)cc4)CC2)C3=O)cn1
CLint scaled [1]: < 2.8 mL/min/kg | CLint scaled [2]: 8.1 mL/min/kg | efflux ratio (MDR1 (human) [3]): 1.7 | IC50 (Gamma-secretase [4]): 410 nM | CLint scaled [5]: 482 mL/min/kg

Cc1cn(-c2ccc3n(c2=O)CCN(CCOc2ccc(F)cc2C(F)(F)F)C3=O)cn1
Vd [6]: 1.91 L/kg | CLint scaled [2]: < 8.8 mL/min/kg | efflux ratio (MDR1 (human) [3]): 1.5 | IC50 (Cytochrome P450 2D6): > 30000 nM | IC50 (Cytochrome P450 1A2): > 30000 nM | Papp A→B (MDR1 (human) [7]): 13.1 ×10⁻⁶ cm/s | IC50 (Gamma-secretase [4]): 252 nM | IC50 (Cytochrome P450 2C19): > 30000 nM | Kp at 1 h [8]: 0.74 | IC50 (Gamma-secretase [9]): > 50000 nM | fraction unbound [10]: 0.055 | IC50 (Cytochrome P450 2C8): 19000 nM | logD [11]: 2.75 | bioavailability [12]: 100% | IC50 (Cytochrome P450 3A4): > 30000 nM | concentration at 1 h [13]: 964 ng/mL | Papp A→B [14]: 17.7 ×10⁻⁶ cm/s | concentration at 1 h [15]: 718 ng/mL | clearance [16]: 14.3 mL/min/kg | fraction unbound [17]: 0.032 | half-life [18]: 2.09 h | solubility kinetic [19]: 177 µM (≈ 79.7 µg/mL) | IC50 (Cytochrome P450 2C9): > 30000 nM | CLint scaled [5]: 44.1 mL/min/kg | Kp uu [20]: 0.43

Cc1cn(-c2ccc3n(c2=O)CCN(CCOc2cccc4ccc(F)cc24)C3=O)cn1
CLint scaled [2]: 30 mL/min/kg | efflux ratio (MDR1 (human) [3]): 1.5 | IC50 (Gamma-secretase [4]): 15 nM | CLint scaled [5]: 469 mL/min/kg

Cc1cn(-c2ccc3c(=O)n(Cc4cccc(C(F)(F)F)c4)ccc3c2O)cn1
CLint scaled [2]: 12.3 mL/min/kg | efflux ratio (MDR1 (human) [3]): 1.1 | IC50 (Gamma-secretase [4]): 920 nM

C#CCCCOc1ccc(C(=O)c2cccc(OCCN3CCn4c(ccc(-n5cnc(C)c5)c4=O)C3=O)c2)cc1
IC50 (Gamma-secretase [21]): 135 nM | Activity [22]: Active | Activity [23]: inactive | Activity [24]: inactive | Activity [25]: Active

Cc1cn(-c2ccc3n(c2=O)CCN(CCOc2ccccc2C(F)(F)F)C3=O)cn1
CLint scaled [2]: 12.7 mL/min/kg | efflux ratio (MDR1 (human) [3]): 1.5 | IC50 (Gamma-secretase [4]): 311 nM | bioavailability [12]: 23% | CLint scaled [5]: 97 mL/min/kg

COc1cc2c(=O)n(CCc3cccc(Cl)c3)ccc2cc1-n1cnc(C)c1
CLint scaled [2]: 32.7 mL/min/kg | efflux ratio (MDR1 (human) [3]): 1 | IC50 (Gamma-secretase [4]): > 15800 nM
